Patent US11555035B2, “Heterocyclic compound and harmful arthropod-controlling agent containing same” (SUMITOMO CHEMICAL COMPANY, LIMITED, priority 2017, dated 2023)

Tested on: German cockroaches (Blattella germanica)
Experiment: Test method 9: treated filter paper with sucrose, German cockroaches
Assay type: in vivo
Details: 500 ppm, 0.7 mL on filter paper, male adults, after 6 days
Protocol: Next, Test Examples are used to show effects of the Present compounds on harmful arthropods. In the following Test Examples, the tests were carried out at 25° C.
Each test compound is formulated according to the process described in the Formulation Example 5 to obtain each formulation, and water is added thereto to prepare a diluted solution containing a prescribed concentration of each test compound.
A filter paper having a diameter of 5.5 cm is lined with the inside bottom of a cup having a diameter of 5.5 cm, each of said diluted solutions (0.7 mL) is added dropwise on the filter paper, and sucrose (30 mg) is homogeneously placed into said cup as a feed. Two(2) male adult German cockroaches (Blattella germanica) are released into said cup, and the cup is covered. After 6 days, life and death of the German cockroach are examined, the number of the dead insects is counted, and the mortality of insects is calculated by the following equation. Mortality(%)=(Number of dead insects/Number of test insects)×100

CCS(=O)(=O)c1cc(-c2ncc(C#N)cn2)cnc1-c1nc2cc(C(F)(F)F)cnc2n1C [compound 2]
mortality: 100%

CCS(=O)(=O)c1cc(-c2ncc(C#N)cn2)c(N)nc1-c1nc2cc(C(F)(F)F)cnc2n1C [compound 7]
mortality: 100%
